Values of other authors, collected in patent publication US20220151952A1 (priority 2019, published 2022).

Question: For cannabidiol [CBD], which “solubility in organic solvents” value (organic solvents, such as oil) is on record?
Answer: Its value is “soluble”.

Question: What about the solubility in water (water) of the same substance?
Answer: Its solubility in water is “insoluble”.
